# Source: ChEMBL document CHEMBL3885861, “Open TG-GATES”
# Species on record: Rattus norvegicus
# Assay: Open TG-GATES - Regimen: Daily Repeat
# Type: toxicity, organism-based, Sprague-Dawley
# Parameters: regimen Daily Repeat, gender Male, age 6 weeks
# Conditions: in vivo, po, route gavage; for Bas / Eos / Fbg / Ht / MCHC / Mono / Plat / RBC / Ret / WBC / MCV: tissue Blood; for KIDNEY_L / KIDNEY_R / KIDNEY_TOTAL: tissue Kidney; for ALT / AST / CRE / DBIL / GLC / IP / K / LDH / PL / RALB / TBIL / TC / TG / TP / gamma-GTP: tissue Plasma
# [1] = 0 mg/kg, 72 h, dose level Control, time 3 day
# [2] = 0 mg/kg, […], dose level Control, time 7 day
# [3] = 0 mg/kg, […], dose level Control, time 14 day
# [4] = 0 mg/kg, […], dose level Control, time 28 day
# [5] = 10 mg/kg, 72 h, dose level Low, time 3 day
# [6] = 10 mg/kg, […], dose level Low, time 7 day
# [7] = 10 mg/kg, […], dose level Low, time 14 day
# [8] = 10 mg/kg, […], dose level Low, time 28 day
smiles,measurement,setting,value
CC(C)OC(=O)C(C)(C)Oc1ccc(C(=O)c2ccc(Cl)cc2)cc1 [FENOFIBRATE],TERMINAL_BW,[1],218.5 g
same,Bas,[1],0.2%
same,Eos,[1],1.2%
same,Fbg,[1],275 mg/dL
same,Ht,[1],39.9%
same,MCHC,[1],33%
same,Mono,[1],3.2%
same,Plat,[1],108.4 x10_4/uL
same,RBC,[1],625.4 x10_4/ul
same,Ret,[1],7.7%
same,WBC,[1],80.3 x10_2/uL
same,KIDNEY_L,[1],1 g
same,KIDNEY_R,[1],0.9 g
same,KIDNEY_TOTAL,[1],1.9 g
same,ALT,[1],44.4 IU/L
same,AST,[1],69 IU/L
same,CRE,[1],0.2 mg/dL
same,DBIL,[1],0.014 mg/dL
same,GLC,[1],180.4 mg/dL
same,IP,[1],8.3 mg/dL
same,K,[1],4.3 meq/L
same,LDH,[1],75.2 IU/L
same,PL,[1],150.2 mg/dL
same,RALB,[1],2.6 g/dL
same,TBIL,[1],0.042 mg/dL
same,TC,[1],76.8 mg/dL
same,TG,[1],86 mg/dL
same,TP,[1],5.6 g/dL
same,gamma-GTP,[1],1.2 IU/L
same,TERMINAL_BW,[2],254.4 g
same,TERMINAL_BW,[3],310.8 g
same,TERMINAL_BW,[4],390.8 g
same,Bas,[2],0%
same,Eos,[2],1%
same,Fbg,[2],310.4 mg/dL
same,Ht,[2],41.5%
same,MCHC,[2],32.7%
same,Mono,[2],2.8%
same,Plat,[2],113.6 x10_4/uL
same,RBC,[2],650 x10_4/ul
same,Ret,[2],6.1%
same,WBC,[2],94.9 x10_2/uL
same,Bas,[3],0%
same,Eos,[3],1%
same,Fbg,[3],309.8 mg/dL
same,Ht,[3],43.2%
same,MCHC,[3],33.2%
same,Mono,[3],2.2%
same,Plat,[3],111 x10_4/uL
same,RBC,[3],692.6 x10_4/ul
same,Ret,[3],4.5%
same,WBC,[3],81.5 x10_2/uL
same,Bas,[4],0.4%
same,Eos,[4],1.2%
same,Fbg,[4],270.6 mg/dL
same,Ht,[4],45.9%
same,MCHC,[4],33.9%
same,MCV,[4],59.2 fL
same,Mono,[4],2.2%
same,Plat,[4],101.9 x10_4/uL
same,RBC,[4],774.4 x10_4/ul
same,Ret,[4],2.5%
same,WBC,[4],107.1 x10_2/uL
same,KIDNEY_L,[2],1.1 g
same,KIDNEY_R,[2],1.1 g
same,KIDNEY_TOTAL,[2],2.1 g
same,KIDNEY_L,[3],1.2 g
same,KIDNEY_R,[3],1.2 g
same,KIDNEY_TOTAL,[3],2.4 g
same,KIDNEY_L,[4],1.3 g
same,KIDNEY_R,[4],1.3 g
same,KIDNEY_TOTAL,[4],2.5 g
same,ALT,[2],47.8 IU/L
same,AST,[2],72.2 IU/L
same,CRE,[2],0.2 mg/dL
same,DBIL,[2],0.012 mg/dL
same,GLC,[2],187.8 mg/dL
same,IP,[2],7.9 mg/dL
same,K,[2],4.3 meq/L
same,LDH,[2],89.6 IU/L
same,PL,[2],147.8 mg/dL
same,RALB,[2],2.7 g/dL
same,TBIL,[2],0.036 mg/dL
same,TC,[2],72.2 mg/dL
same,TG,[2],122.6 mg/dL
same,TP,[2],5.8 g/dL
same,gamma-GTP,[2],1 IU/L
same,ALT,[3],40.8 IU/L
same,AST,[3],65.8 IU/L
same,CRE,[3],0.2 mg/dL
same,DBIL,[3],0.014 mg/dL
same,GLC,[3],188.2 mg/dL
same,IP,[3],7.5 mg/dL
same,K,[3],4.3 meq/L
same,LDH,[3],106.6 IU/L
same,PL,[3],144.8 mg/dL
same,RALB,[3],2.7 g/dL
same,TBIL,[3],0.038 mg/dL
same,TC,[3],64.6 mg/dL
same,TG,[3],188 mg/dL
same,TP,[3],5.9 g/dL
same,gamma-GTP,[3],1 IU/L
same,ALT,[4],40.2 IU/L
same,AST,[4],65.8 IU/L
same,CRE,[4],0.2 mg/dL
same,DBIL,[4],0.012 mg/dL
same,GLC,[4],186 mg/dL
same,IP,[4],7.1 mg/dL
same,K,[4],3.6 meq/L
same,LDH,[4],90 IU/L
same,PL,[4],142 mg/dL
same,RALB,[4],2.8 g/dL
same,TBIL,[4],0.042 mg/dL
same,TC,[4],71.4 mg/dL
same,TG,[4],117.8 mg/dL
same,TP,[4],6.3 g/dL
same,gamma-GTP,[4],1.2 IU/L
same,TERMINAL_BW,[5],221.1 g
same,Bas,[5],0.4%
same,Eos,[5],1.4%
same,Fbg,[5],269.8 mg/dL
same,Ht,[5],39.2%
same,MCHC,[5],33.1%
same,Mono,[5],3%
same,Plat,[5],113.1 x10_4/uL
same,RBC,[5],620.2 x10_4/ul
same,Ret,[5],7.2%
same,WBC,[5],80.5 x10_2/uL
same,KIDNEY_L,[5],1 g
same,KIDNEY_R,[5],1 g
same,KIDNEY_TOTAL,[5],2 g
same,ALT,[5],49 IU/L
same,AST,[5],76.6 IU/L
same,CRE,[5],0.2 mg/dL
same,DBIL,[5],0.012 mg/dL
same,GLC,[5],182.8 mg/dL
same,IP,[5],8.3 mg/dL
same,K,[5],4.1 meq/L
same,LDH,[5],74 IU/L
same,PL,[5],148.8 mg/dL
same,RALB,[5],2.6 g/dL
same,TBIL,[5],0.04 mg/dL
same,TC,[5],80.4 mg/dL
same,TG,[5],52.4 mg/dL
same,TP,[5],5.6 g/dL
same,gamma-GTP,[5],1.2 IU/L
same,TERMINAL_BW,[6],253.9 g
same,TERMINAL_BW,[7],314.5 g
same,TERMINAL_BW,[8],385.8 g
same,Bas,[6],0.2%
same,Eos,[6],1%
same,Fbg,[6],280.8 mg/dL
same,Ht,[6],41%
same,MCHC,[6],33.1%
same,Mono,[6],2.2%
same,Plat,[6],136.5 x10_4/uL
same,RBC,[6],646.8 x10_4/ul
same,Ret,[6],6.2%
same,WBC,[6],99.8 x10_2/uL
same,Bas,[7],0%
same,Eos,[7],1%
same,Fbg,[7],309.6 mg/dL
same,Ht,[7],42.6%
same,MCHC,[7],33.5%
same,Mono,[7],3%
same,Plat,[7],123.9 x10_4/uL
same,RBC,[7],687.6 x10_4/ul
same,Ret,[7],4.5%
same,WBC,[7],88.4 x10_2/uL
same,Bas,[8],0%
same,Eos,[8],1.2%
same,Fbg,[8],267 mg/dL
same,Ht,[8],44.6%
same,MCHC,[8],33.7%
same,MCV,[8],57.9 fL
same,Mono,[8],2.4%
same,Plat,[8],105.5 x10_4/uL
same,RBC,[8],770.4 x10_4/ul
same,Ret,[8],2.1%
same,WBC,[8],88.4 x10_2/uL
same,KIDNEY_L,[6],1.1 g
same,KIDNEY_R,[6],1.1 g
same,KIDNEY_TOTAL,[6],2.1 g
same,KIDNEY_L,[7],1.3 g
same,KIDNEY_R,[7],1.3 g
same,KIDNEY_TOTAL,[7],2.6 g
same,KIDNEY_L,[8],1.5 g
same,KIDNEY_R,[8],1.5 g
same,KIDNEY_TOTAL,[8],2.9 g
same,ALT,[6],45.2 IU/L
same,AST,[6],72.8 IU/L
same,CRE,[6],0.2 mg/dL
same,DBIL,[6],0.01 mg/dL
same,GLC,[6],187.2 mg/dL
same,IP,[6],8.1 mg/dL
same,K,[6],4.4 meq/L
same,LDH,[6],101.2 IU/L
same,PL,[6],131.8 mg/dL
same,RALB,[6],2.7 g/dL
same,TBIL,[6],0.026 mg/dL
same,TC,[6],65.6 mg/dL
same,TG,[6],74.2 mg/dL
same,TP,[6],5.8 g/dL
same,gamma-GTP,[6],1 IU/L
same,ALT,[7],39.8 IU/L
same,AST,[7],64 IU/L
same,CRE,[7],0.2 mg/dL
same,DBIL,[7],0.014 mg/dL
same,GLC,[7],193.2 mg/dL
same,IP,[7],7.7 mg/dL
same,K,[7],4.3 meq/L
same,LDH,[7],84 IU/L
same,PL,[7],132.4 mg/dL
same,RALB,[7],2.7 g/dL
same,TBIL,[7],0.03 mg/dL
same,TC,[7],57.2 mg/dL
same,TG,[7],124.8 mg/dL
same,TP,[7],6 g/dL
same,gamma-GTP,[7],0.8 IU/L
same,ALT,[8],40.2 IU/L
same,AST,[8],63.2 IU/L
same,CRE,[8],0.2 mg/dL
same,DBIL,[8],0.01 mg/dL
same,GLC,[8],187.6 mg/dL
same,IP,[8],7.2 mg/dL
same,K,[8],4.2 meq/L
same,LDH,[8],101.6 IU/L
same,PL,[8],136.2 mg/dL
same,RALB,[8],2.8 g/dL
same,TBIL,[8],0.028 mg/dL
same,TC,[8],64.6 mg/dL
same,TG,[8],100 mg/dL
same,TP,[8],6.4 g/dL
same,gamma-GTP,[8],1 IU/L
